Earlier results in patent US20130031645A1, “METHOD FOR HEPATIC DIFFERENTIATION OF DEFINITIVE ENDODERM CELLS” (priority 2009, published 2013).

Tests used:
[1] = test system: retinoic acid receptors (RARs)
[2] = test system: RXR receptors

affinity for the three RAR subtypes [1]: approximately equal affinity
binding to the RXR receptors [2]: does not bind
Compound: CC1=C(/C=C/C(C)=C/C=C/C(C)=C/C(=O)O)C(C)(C)CCC1 [ATRA, All-trans retinoic acid]
